For one assay, the system named is A. hydrophila. Kind of assay: Inhibition zone test. In kind it is cell-based, Aeromonas hydrophila. As to conditions: 20 μL of 64 μM peptide in PBS pH 7.4 on 6 mm filter paper, solid LB plate, 28 °C, 24 h. How it is done: (§1) Gram-negative bacteria, including Escherichia coli and Aeromonas hydrophila, and Gram-positive bacteria, including Micrococcus luteus and Bacillus simplex were used for antibacterial analyses. The strains were incubated in fresh LB medium overnight at 37 °C for E. coli, M. luteus and 28 °C for A. hydrophila, B. simplex.
(§2) The antibacterial activities of LBD peptides were examined by inhibition zone test. The overnight cultures of bacteria were diluted 100 times and cultured in LB medium at 37 °C (E. coli and M. luteus) or 28 °C (A. hydrophila and B. simplex) for 6 h. These cultures were then diluted 100 times with LB medium separately, and 200 μL solutions from each diluted cultures was taken out and spread on the solid LB medium plate uniformly. Sterile filter paper with a diameter of 6 mm was put on the surface of solid LB medium gently. Twenty microliters of 64 μM peptide solution dissolved in PBS (pH 7.4) was added to the center of filter paper with a diameter of 6 mm. Twenty microliters PBS and 20 μL of 64 μM pGFP peptide were used as negative controls. […] ampicillin solutions was used as the positive control for E. coli, M. luteus and B. simplex culture, and 50 μM kanamycin sulfates was used as the positive control for A. hydrophila culture. The plates were cultured at 37 °C (E. coli and M. luteus) or 28 °C (A. hydrophila and B. simplex) for 24 h.

For the next assay, the system named is M. luteus. Kind of assay: Inhibition zone test. In kind it is cell-based, Micrococcus luteus. The note with it: 20 μL of 64 μM peptide in PBS pH 7.4 on 6 mm filter paper, solid LB plate, 37 °C, 24 h. How it is done: as §1, §2
A further assay has as its system WSSV. Nature of the assay: Antiviral activity detection: WSSV pre-incubated with peptide injected into E. carinicauda, in vivo WSSV copy number. Also on record: species or system Exopalaemon carinicauda. As to conditions: E. carinicauda pleopods, 24 h post injection; WSSV (10^3 copies/μL) pre-incubated 2 h at room temperature with 50 μM peptide, 10 μL injected; VP28 real-time PCR; n = 15; WSSV group 1.21 × 10^5, blank 1.31 × 10^3. How it is done: Exopalaemon carinicauda is being regarded as a good crustacean model animal for WSSV infection experiments. In this study, healthy E. carinicauda with a body length of 5.43 ± 0.30 cm and a body weight of 2.62 ± 0.42 g were used as experimental animals for WSSV infection assay. Animals were acclimatized in the aerated seawater at 25 °C for 1 day before experiments.
In order to learn the effect of synthetic LBD peptides on WSSV infection, WSSV pre-incubated with different peptides was injected into E. carinicauda and the WSSV copy number in the pleopods of E. carinicauda was detected. E. carinicauda was classified into 13 groups and each group contained 18 to 20 individuals. The 13 groups were named as Blank, WSSV, pGFP, LBD1, LBD2, LBD3, LBD4, LBD5, LBD6, LBD7, sLBD2, LBD2-K and LBD4+K, respectively. Synthetic peptides were diluted into 50 μM with PBS (pH 7.4). WSSV was incubated with each peptide solution for 2 h at room temperature with a final concentration 10^3 copies/μL. […] For WSSV group, each shrimp was injected with 10 μL WSSV incubated with PBS (pH 7.4) for 2 h at room temperature. For the other groups (LBD1–LBD7, sLBD2, LBD2-K and LBD4+K), each shrimp was injected with 10 μL of WSSV solution after incubation with corresponding synthetic peptides, respectively. At 24 h post injection (hpi), the pleopods of 15 shrimps in each group were collected and the pleopods from three individuals were put together as one sample. Total DNA of each sample was extracted using the Genomic DNA Kit (Tiangen, China). The viral copy number was measured by detecting the level of VP28 using real-time PCR as described previously.
Background: Quantitative PCR measures a nucleic acid by following its amplification.

Where a SMILES comes first, the peptide text is derived from it.

Consider `CSCC[C@@H]1NC(=O)[C@H](CCCNC(=N)N)NC(=O)CNC(=O)[C@H](CCCNC(=N)N)NC(=O)[C@H](Cc2ccccc2)NC(=O)[C@H](Cc2ccc(O)cc2)NC(=O)[C@H](CC(C)C)NC(=O)[C@H](CCC(N)=O)NC(=O)[C@H](Cc2c[nH]c3ccccc23)NC(=O)[C@H](CCCNC(=N)N)NC(=O)[C@H](CCCCN)NC(=O)[C@H](Cc2ccccc2)NC(=O)[C@H](CCCCN)NC(=O)[C@@H]2CCCN2C(=O)[C@H]([C@@H](C)O)NC(=O)[C@H](C(C)C)NC(=O)[C@H](CC(N)=O)NC(=O)[C@H](Cc2ccccc2)NC(=O)[C@H](CO)NC(=O)[C@@H](NC(=O)[C@H](Cc2ccc(O)cc2)NC(C)=O)CSSC[C@@H](C(=O)N2CCC[C@H]2C(N)=O)NC(=O)[C@H](Cc2c[nH]c3ccccc23)NC1=O` [LBD2] (HELM PEPTIDE1{[ac].Y.C.S.F.N.V.T.P.K.F.K.R.W.Q.L.Y.F.R.G.R.M.W.C.P.[am]}$PEPTIDE1,PEPTIDE1,3:R3-24:R3$$$V2.0), for which the figures for the Inhibition zone result with A. hydrophila and in the assay with M. luteus were “exhibited inhibition zones” and “Obvious inhibition zones”, respectively. For the same molecule, the WSSV copy number in the assay on WSSV is given as 1.40 × 10^3 copies/ng DNA.

These data come from publication PMC4446596, “Functional Diversity of Anti-Lipopolysaccharide Factor Isoforms in Shrimp and Their Characters Related to Antiviral Activity” (Marine Drugs, 2015).
